{
  "source": "PubChem BioAssay (NCI)",
  "assay_in_all_cases": "inhibition of tumour cell growth, NCI panel, 48 h",
  "key": {"SF-539 CNS": {"system": "SF-539 CNS"}, "MALME-3M melanoma": {"system": "MALME-3M melanoma"}, "SK-MEL-5 melanoma": {"system": "SK-MEL-5 melanoma"}, "COLO 205 colon": {"system": "COLO 205 colon"}, "OVCAR-4 ovarian": {"system": "OVCAR-4 ovarian"}, "DU-145 prostate": {"system": "DU-145 prostate"}, "KM12 colon": {"system": "KM12 colon"}, "A498 renal": {"system": "A498 renal"}, "U251 CNS": {"system": "U251 CNS"}, "M14 melanoma": {"system": "M14 melanoma"}, "SK-OV-3 ovarian": {"system": "SK-OV-3 ovarian"}, "MCF7 breast": {"system": "MCF7 breast"}, "786-0 renal": {"system": "786-0 renal"}, "CCRF-CEM leukemia": {"system": "CCRF-CEM leukemia"}, "SF-268 CNS": {"system": "SF-268 CNS"}, "T-47D breast": {"system": "T-47D breast"}, "NCI-H522 lung": {"system": "NCI-H522 lung"}, "OVCAR-5 ovarian": {"system": "OVCAR-5 ovarian"}, "A549 NSCLC": {"system": "A549 NSCLC"}, "HCT-15 colon": {"system": "HCT-15 colon"}, "SK-MEL-28 melanoma": {"system": "SK-MEL-28 melanoma"}, "MOLT-4 leukemia": {"system": "MOLT-4 leukemia"}, "MDA-MB-435": {"system": "MDA-MB-435"}, "SR leukemia": {"system": "SR leukemia"}, "NCI-H460 lung": {"system": "NCI-H460 lung"}, "HCT-116 colon": {"system": "HCT-116 colon"}, "RXF 393 renal": {"system": "RXF 393 renal"}},
  "note": "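Protocol summary: plate cells (96-well), add compound at 5 concentrations, incubate 48 h, interpolate endpoints linearly. The concentration for 50% growth inhibition is given as GI50. At the TGI there is no net growth.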",
  "data": [
    {"smiles": "c1ccc2[nH]c(-c3ccc(Nc4nc(N5CCCCC5)nc(N5CCOCC5)n4)cc3)nc2c1", "values": [
      {"measurement": "TGI", "setting": "SF-539 CNS", "value": 5.75, "unit": "µM"},
      {"measurement": "GI50", "setting": "MALME-3M melanoma", "value": 1.87, "unit": "µM"},
      {"measurement": "TGI", "setting": "MALME-3M melanoma", "value": 3.57, "unit": "µM"},
      {"measurement": "GI50", "setting": "SK-MEL-5 melanoma", "value": 1.78, "unit": "µM"},
      {"measurement": "TGI", "setting": "SK-MEL-5 melanoma", "value": 3.3, "unit": "µM"},
      {"measurement": "GI50", "setting": "COLO 205 colon", "value": 1.86, "unit": "µM"},
      {"measurement": "TGI", "setting": "COLO 205 colon", "value": 3.92, "unit": "µM"},
      {"measurement": "GI50", "setting": "OVCAR-4 ovarian", "value": 3.98, "unit": "µM"},
      {"measurement": "TGI", "setting": "OVCAR-4 ovarian", "value": 25.4, "unit": "µM"},
      {"measurement": "GI50", "setting": "DU-145 prostate", "value": 4.28, "unit": "µM"},
      {"measurement": "TGI", "setting": "DU-145 prostate", "value": "> 100", "unit": "µM"},
      {"measurement": "GI50", "setting": "KM12 colon", "value": 2.85, "unit": "µM"},
      {"measurement": "TGI", "setting": "KM12 colon", "value": 9.54, "unit": "µM"},
      {"measurement": "GI50", "setting": "A498 renal", "value": 1.77, "unit": "µM"},
      {"measurement": "TGI", "setting": "A498 renal", "value": 4.18, "unit": "µM"},
      {"measurement": "GI50", "setting": "U251 CNS", "value": 2.18, "unit": "µM"},
      {"measurement": "TGI", "setting": "U251 CNS", "value": 10, "unit": "µM"},
      {"measurement": "GI50", "setting": "M14 melanoma", "value": 2.05, "unit": "µM"},
      {"measurement": "TGI", "setting": "M14 melanoma", "value": 4.72, "unit": "µM"},
      {"measurement": "GI50", "setting": "SK-OV-3 ovarian", "value": 2.37, "unit": "µM"},
      {"measurement": "TGI", "setting": "SK-OV-3 ovarian", "value": 5.43, "unit": "µM"},
      {"measurement": "GI50", "setting": "MCF7 breast", "value": 2.4, "unit": "µM"},
      {"measurement": "TGI", "setting": "MCF7 breast", "value": 7.9, "unit": "µM"},
      {"measurement": "GI50", "setting": "786-0 renal", "value": 1.54, "unit": "µM"},
      {"measurement": "TGI", "setting": "786-0 renal", "value": 3.21, "unit": "µM"},
      {"measurement": "GI50", "setting": "CCRF-CEM leukemia", "value": 3.25, "unit": "µM"},
      {"measurement": "TGI", "setting": "CCRF-CEM leukemia", "value": "> 100", "unit": "µM"},
      {"measurement": "GI50", "setting": "SF-268 CNS", "value": 3.21, "unit": "µM"},
      {"measurement": "TGI", "setting": "SF-268 CNS", "value": 20.1, "unit": "µM"},
      {"measurement": "GI50", "setting": "T-47D breast", "value": 1.96, "unit": "µM"},
      {"measurement": "TGI", "setting": "T-47D breast", "value": 4.58, "unit": "µM"},
      {"measurement": "GI50", "setting": "NCI-H522 lung", "value": 2.36, "unit": "µM"},
      {"measurement": "TGI", "setting": "NCI-H522 lung", "value": 6.22, "unit": "µM"},
      {"measurement": "GI50", "setting": "OVCAR-5 ovarian", "value": 4.06, "unit": "µM"},
      {"measurement": "TGI", "setting": "OVCAR-5 ovarian", "value": 29.3, "unit": "µM"},
      {"measurement": "GI50", "setting": "A549 NSCLC", "value": 3.27, "unit": "µM"},
      {"measurement": "TGI", "setting": "A549 NSCLC", "value": 13.2, "unit": "µM"},
      {"measurement": "GI50", "setting": "HCT-15 colon", "value": 1.88, "unit": "µM"},
      {"measurement": "TGI", "setting": "HCT-15 colon", "value": 4.38, "unit": "µM"},
      {"measurement": "GI50", "setting": "SK-MEL-28 melanoma", "value": 1.8, "unit": "µM"},
      {"measurement": "TGI", "setting": "SK-MEL-28 melanoma", "value": 4.02, "unit": "µM"},
      {"measurement": "GI50", "setting": "MOLT-4 leukemia", "value": 2.73, "unit": "µM"},
      {"measurement": "TGI", "setting": "MOLT-4 leukemia", "value": 7.89, "unit": "µM"},
      {"measurement": "GI50", "setting": "MDA-MB-435", "value": 2.06, "unit": "µM"},
      {"measurement": "TGI", "setting": "MDA-MB-435", "value": 4.59, "unit": "µM"},
      {"measurement": "GI50", "setting": "SR leukemia", "value": 0.73, "unit": "µM"},
      {"measurement": "TGI", "setting": "SR leukemia", "value": 5.73, "unit": "µM"},
      {"measurement": "GI50", "setting": "NCI-H460 lung", "value": 2.44, "unit": "µM"},
      {"measurement": "TGI", "setting": "NCI-H460 lung", "value": 6.18, "unit": "µM"},
      {"measurement": "GI50", "setting": "HCT-116 colon", "value": 1.91, "unit": "µM"},
      {"measurement": "TGI", "setting": "HCT-116 colon", "value": 3.87, "unit": "µM"},
      {"measurement": "GI50", "setting": "RXF 393 renal", "value": 0.808, "unit": "µM"},
      {"measurement": "TGI", "setting": "RXF 393 renal", "value": 3.28, "unit": "µM"}
    ]}
  ]
}
